Source: ChEMBL document CHEMBL3286135, “Antiviral C-25 epimers of 26-acetoxy steroids from the South China Sea gorgonian Echinogorgia rebekka” (J Nat Prod, 2014)
pIC50: −log10 of the molar value. The source made the active and inactive calls. The rule behind the calls is not given here.

Key:
[1] = tested on: Respiratory syncytial virus; assay: Antiviral activity against Respiratory syncytial virus infected in human Hep2 cells assessed as virus-induced cytopathicity by XTT assay; format: functional, organism-based; details: HEp-2
[2] = Cytotoxicity against mock-infected human Hep2 cells by XTT assay; format: cell-based, HEp-2; details: read-out: TC50 (the source's name)
[3] = Therapeutic ratio of TC50 for mock-infected human Hep2 cells to IC50 for Respiratory syncytial virus infected in human Hep2 cells; format: ADME, cell-based, HEp-2; details: read-out: TI
Bacillus cereus = assay: Antibacterial activity against Bacillus cereus by broth dilution assay; format: functional, organism-based
[4] = tested on: Tetragenococcus halophilus; assay: Antibacterial activity against Tetragenococcus halophilus by broth dilution assay; format: functional
[5] = tested on: Staphylococcus epidermidis; assay: Antibacterial activity against Staphylococcus epidermidis by broth dilution assay; format: functional, organism-based
Staphylococcus aureus = assay: Antibacterial activity against Staphylococcus aureus by broth dilution assay; format: functional, organism-based
Escherichia coli = assay: Antibacterial activity against Escherichia coli by broth dilution assay; format: functional, organism-based
Pseudomonas putida = assay: Antibacterial activity against Pseudomonas putida by broth dilution assay; format: functional, organism-based
Nocardia brasiliensis = assay: Antibacterial activity against Nocardia brasiliensis by broth dilution assay; format: functional, organism-based
Vibrio parahaemolyticus = assay: Antibacterial activity against Vibrio parahaemolyticus by broth dilution assay; format: functional, organism-based
K562 = assay: Cytotoxicity against human K562 cells by MTT assay; format: functional, cell-based
HL-60 = assay: Cytotoxicity against human HL60 cells by MTT assay; format: functional, cell-based
HeLa = assay: Cytotoxicity against human HeLa cells by SRB assay; format: functional, cell-based
A549 = assay: Cytotoxicity against human A549 cells by SRB assay; format: functional, cell-based

Row | SMILES | pIC50 [1] | CC50 [2] [µM] | selectivity ratio [3] | Activity (Bacillus cereus) | Activity [4] | Activity [5] | Activity (Staphylococcus aureus) | Activity (Escherichia coli) | Activity (Pseudomonas putida) | Activity (Nocardia brasiliensis) | Activity (Vibrio parahaemolyticus) | pIC50 (K562) | Activity (HL-60) | Activity (K562) | Activity (HeLa) | Activity (A549) | pIC50 (HL-60)
1 | CC(=O)OC[C@@H](C)C/C=C/[C@@H](C)[C@H]1CC[C@H]2[C@@H]3CC(=O)[C@@]4(O)C[C@@H](O)CC[C@]4(C)[C@H]3CC[C@]12C | 6.11 | 12.6 | 16 | inactive | inactive | inactive | inactive | inactive | inactive | inactive | inactive | 6.07 |  |  |  |  | 
2 | CC(=O)OC[C@H](C)[C@H](C)/C=C/[C@@H](C)[C@H]1CC[C@H]2[C@@H]3CC(=O)[C@@]4(O)C[C@@H](O)CC[C@]4(C)[C@H]3CC[C@]12C | 6.72 | 24.4 | 128 | inactive | inactive | inactive | inactive | inactive | inactive | inactive | inactive |  | inactive | inactive | inactive | inactive | 
3 | CC(=O)OCC(C)/C=C/[C@@H](C)[C@H]1CC[C@H]2[C@@H]3CC(=O)[C@@]4(O)C[C@@H](O)CC[C@]4(C)[C@H]3CC[C@]12C (stereo not given in full) | 5.49 | 12.9 | 4 | inactive | inactive | inactive | inactive | inactive | inactive | inactive | inactive | 5.38 |  |  |  |  | 
4 | CC(=O)OC[C@@H](C)[C@H](C)/C=C/[C@@H](C)[C@H]1CC[C@H]2[C@@H]3CC(=O)[C@@]4(O)C[C@@H](O)CC[C@]4(C)[C@H]3CC[C@]12C | 6.72 | 0.38 | 2 | inactive | inactive | inactive | inactive | inactive | inactive | inactive | inactive | 5.20 |  |  |  |  | 5.05
5 | NC(=O)c1ncn([C@@H]2O[C@H](CO)[C@@H](O)[C@H]2O)n1 [RIBAVIRIN] | 4.69 | > 3000 | > 147 |  |  |  |  |  |  |  |  |  |  |  |  |  | 
